Laboratory results: article PMC5218480 (PLoS ONE, 2017)

Test system: MV-4-11 cells
Assay: Gene expression microarray analysis (Affymetrix PrimeView) and GSEA
Format: cell-based, human
Design: RFU PODN (11730768_x_at) / Fold change /veh PODN (11730768_x_at) / RFU LINC00158 (11744669_a_at) / Fold change /veh LINC00158 (11744669_a_at) / RFU DUSP10 (11751237_a_at) / Fold change /veh DUSP10 (11751237_a_at) / RFU ID3 (11757404_x_at) / Fold change /veh ID3 (11757404_x_at) / RFU PLEKHG5 (11737974_s_at) / Fold change /veh PLEKHG5 (11737974_s_at) / RFU LRRC4B (11730491_at) / Fold change /veh LRRC4B (11730491_at) / RFU GIMAP4 (11747438_a_at) / Fold change /veh GIMAP4 (11747438_a_at) / RFU KRT8 (11758183_x_at) / Fold change /veh KRT8 (11758183_x_at) / RFU CNN1 (11734310_a_at) / Fold change /veh CNN1 (11734310_a_at) / RFU VPS37D (11726825_at) / Fold change /veh VPS37D (11726825_at) / RFU C10orf10 (11716522_x_at) / Fold change /veh C10orf10 (11716522_x_at) / RFU KIR2DL2 /// KIR2DL4 /// KIR2DL5A /// KIR2DL5B /// KIR2DS1 /// KIR2DS2 /// KIR2DS3 /// KIR2DS4 /// KIR3DL3 /// KIR3DL3 /// KIR3DS1 (11738374_at) / Fold change /veh KIR2DL2 /// KIR2DL4 /// KIR2DL5A /// KIR2DL5B /// KIR2DS1 /// KIR2DS2 /// KIR2DS3 /// KIR2DS4 /// KIR3DL3 /// KIR3DL3 /// KIR3DS1 (11738374_at) / RFU C1QL1 (11718748_at) / Fold change /veh C1QL1 (11718748_at) / RFU TMPRSS4 (11747572_a_at) / Fold change /veh TMPRSS4 (11747572_a_at) / RFU HAMP (11756126_x_at) / Fold change /veh HAMP (11756126_x_at) / RFU RNFT2 (11725882_a_at) / Fold change /veh RNFT2 (11725882_a_at) / RFU NR4A2 (11747474_a_at) / Fold change /veh NR4A2 (11747474_a_at) / RFU ABCC12 (11746883_a_at) / Fold change /veh ABCC12 (11746883_a_at) / RFU TMEM136 (11760407_x_at) / Fold change /veh TMEM136 (11760407_x_at) / RFU CLDN22 /// WWC2 (11732394_at) / Fold change /veh CLDN22 /// WWC2 (11732394_at) / RFU HLA-DPB1 (11760878_x_at) / Fold change /veh HLA-DPB1 (11760878_x_at) / RFU SPINT1 (11716480_a_at) / Fold change /veh SPINT1 (11716480_a_at) / RFU GAP43 (11754022_s_at) / Fold change /veh GAP43 (11754022_s_at) / RFU A4GNT (11735810_at) / Fold change /veh A4GNT (11735810_at) / RFU PRB3 (11715151_x_at) / Fold change /veh PRB3 (11715151_x_at) / RFU TUBB4B (11761932_at) / Fold change /veh TUBB4B (11761932_at) / RFU CAPN14 (11732068_a_at) / Fold change /veh CAPN14 (11732068_a_at) / RFU TMCC2 (11721928_a_at) / Fold change /veh TMCC2 (11721928_a_at) / RFU IRGQ (11745062_a_at) / Fold change /veh IRGQ (11745062_a_at) / RFU FAM174B (11720279_a_at) / Fold change /veh FAM174B (11720279_a_at) / RFU TMPRSS4 (11748680_a_at) / Fold change /veh TMPRSS4 (11748680_a_at) / RFU FAM212B (11763350_a_at) / Fold change /veh FAM212B (11763350_a_at) / RFU PLEKHG5 (11743358_a_at) / Fold change /veh PLEKHG5 (11743358_a_at) / RFU ZSCAN30 (11745921_a_at) / Fold change /veh ZSCAN30 (11745921_a_at) / RFU CMKLR1 (11741424_a_at) / Fold change /veh CMKLR1 (11741424_a_at) / RFU LOC101060620 /// MAPK8IP1 (11723275_at) / Fold change /veh LOC101060620 /// MAPK8IP1 (11723275_at) / RFU SPTSSB (11747773_x_at) / Fold change /veh SPTSSB (11747773_x_at) / RFU PRSS12 (11739890_at) / Fold change /veh PRSS12 (11739890_at) / RFU BIN1 (11741810_x_at) / Fold change /veh BIN1 (11741810_x_at) / RFU WNT11 (11732464_a_at) / Fold change /veh WNT11 (11732464_a_at) / RFU C10orf10 (11716521_a_at) / Fold change /veh C10orf10 (11716521_a_at) / RFU C5orf56 (11738089_at) / Fold change /veh C5orf56 (11738089_at) / RFU CYB561 (11721691_x_at) / Fold change /veh CYB561 (11721691_x_at) / RFU ANKRD19P (11752326_a_at) / Fold change /veh ANKRD19P (11752326_a_at) / RFU OR2T12 /// OR2T33 /// OR2T8 (11738714_s_at) / Fold change /veh OR2T12 /// OR2T33 /// OR2T8 (11738714_s_at) / RFU VCAN (11748164_a_at) / Fold change /veh VCAN (11748164_a_at) / RFU JSRP1 (11732532_at) / Fold change /veh JSRP1 (11732532_at) / RFU KRTAP10-11 (11738290_x_at) / Fold change /veh KRTAP10-11 (11738290_x_at) / RFU MYO3A (11730013_a_at) / Fold change /veh MYO3A (11730013_a_at) / RFU EBF3 (11725865_a_at) / Fold change /veh EBF3 (11725865_a_at) / RFU CAMK2N1 (11719241_x_at) / Fold change /veh CAMK2N1 (11719241_x_at) / RFU C5orf56 (11738088_a_at) / Fold change /veh C5orf56 (11738088_a_at) / RFU OLFML3 (11715873_a_at) / Fold change /veh OLFML3 (11715873_a_at) / RFU LOC100653217 /// NTM (11731650_a_at) / Fold change /veh LOC100653217 /// NTM (11731650_a_at) / RFU MAPK11 (11762145_a_at) / Fold change /veh MAPK11 (11762145_a_at) / RFU FIZ1 (11724087_x_at) / Fold change /veh FIZ1 (11724087_x_at) / RFU OASL (11726364_x_at) / Fold change /veh OASL (11726364_x_at) / RFU SOX15 (11748057_x_at) / Fold change /veh SOX15 (11748057_x_at) / RFU CD79A (11719716_a_at) / Fold change /veh CD79A (11719716_a_at) / RFU HIST1H1D (11736915_at) / Fold change /veh HIST1H1D (11736915_at) / RFU CASKIN2 (11723855_a_at) / Fold change /veh CASKIN2 (11723855_a_at) / RFU LOC730098 (11760151_x_at) / Fold change /veh LOC730098 (11760151_x_at) / RFU OR4N2 (11742367_at) / Fold change /veh OR4N2 (11742367_at) / RFU PRRT2 (11749266_a_at) / Fold change /veh PRRT2 (11749266_a_at) / RFU SNX32 (11753110_a_at) / Fold change /veh SNX32 (11753110_a_at) / RFU CDHR5 (11726645_a_at) / Fold change /veh CDHR5 (11726645_a_at) / RFU RCAN1 (11760418_a_at) / Fold change /veh RCAN1 (11760418_a_at) / RFU FAM167A (11723789_a_at) / Fold change /veh FAM167A (11723789_a_at) / RFU FAM26E (11764081_at) / Fold change /veh FAM26E (11764081_at) / RFU ISYNA1 (11749810_s_at) / Fold change /veh ISYNA1 (11749810_s_at) / RFU ACY1 (11761880_at) / Fold change /veh ACY1 (11761880_at) / RFU 11764098_at / Fold change /veh 11764098_at / RFU SAMD14 (11745864_x_at) / Fold change /veh SAMD14 (11745864_x_at) / RFU NPB (11741838_a_at) / Fold change /veh NPB (11741838_a_at) / RFU TMPRSS6 (11731388_a_at) / Fold change /veh TMPRSS6 (11731388_a_at) / RFU KRTAP10-2 (11738614_at) / Fold change /veh KRTAP10-2 (11738614_at) / RFU ARHGAP8 /// PRR5-ARHGAP8 (11727945_x_at) / Fold change /veh ARHGAP8 /// PRR5-ARHGAP8 (11727945_x_at) / RFU KRTAP5-7 /// NADSYN1 (11734609_at) / Fold change /veh KRTAP5-7 /// NADSYN1 (11734609_at) / RFU RASL12 (11751679_a_at) / Fold change /veh RASL12 (11751679_a_at) / RFU CDKN2B (11736163_a_at) / Fold change /veh CDKN2B (11736163_a_at) / RFU PRF1 (11729649_at) / Fold change /veh PRF1 (11729649_at) / RFU, ZNF638 /// ZNF638-IT1 / Fold change vs veh, ZNF638 /// ZNF638-IT1 / RFU, PANK3 / Fold change vs veh, PANK3 / RFU, SH3YL1 / Fold change vs veh, SH3YL1 / RFU, ZEB2 / Fold change vs veh, ZEB2 / RFU, NRIP1 / Fold change vs veh, NRIP1 / RFU, PTTG1IP / Fold change vs veh, PTTG1IP / RFU, CAPN2 / Fold change vs veh, CAPN2 / RFU, MED14 / Fold change vs veh, MED14 / RFU, SNORA58 / Fold change vs veh, SNORA58 / RFU, C1orf63 / Fold change vs veh, C1orf63 / RFU, LRRFIP1 / Fold change vs veh, LRRFIP1 / RFU, NDUFAF7 / Fold change vs veh, NDUFAF7 / RFU, SLC12A2 / Fold change vs veh, SLC12A2 / RFU, IBTK / Fold change vs veh, IBTK / RFU, ESF1 / Fold change vs veh, ESF1 / Fold change vs veh, TMEM50B / RFU, TAOK1 / Fold change vs veh, TAOK1 / RFU, ACBD3 / Fold change vs veh, ACBD3 / RFU, TMA16 / Fold change vs veh, TMA16 / RFU, RWDD3 / Fold change vs veh, RWDD3 / RFU, BCAT1 / Fold change vs veh, BCAT1 / RFU, EDEM3 / Fold change vs veh, EDEM3 / RFU, TMEM33 / Fold change vs veh, TMEM33 / RFU, WDR75 / Fold change vs veh, WDR75 / RFU, AHCTF1 / Fold change vs veh, AHCTF1 / RFU, TFRC / Fold change vs veh, TFRC / RFU, ZDHHC17 / Fold change vs veh, ZDHHC17 / RFU, NOM1 / Fold change vs veh, NOM1 / RFU, ARL8B / Fold change vs veh, ARL8B / RFU, ZBTB11 / Fold change vs veh, ZBTB11 / RFU, TAMM41 / Fold change vs veh, TAMM41 / RFU, KIAA1704 /// LOC100996395 / Fold change vs veh, KIAA1704 /// LOC100996395 / RFU, ING1 / Fold change vs veh, ING1 / RFU, TRMT61B / Fold change vs veh, TRMT61B / RFU, FUBP3 / Fold change vs veh, FUBP3 / RFU, TP53 / Fold change vs veh, TP53 / RFU, TNKS2 / Fold change vs veh, TNKS2 / RFU, ZFP14 / Fold change vs veh, ZFP14 / RFU, ACTR2 / Fold change vs veh, ACTR2 / RFU, PPP3R1 / Fold change vs veh, PPP3R1 / RFU, PIK3R1 / Fold change vs veh, PIK3R1 / RFU, HNRNPA1 / Fold change vs veh, HNRNPA1 / RFU, RNF170 / Fold change vs veh, RNF170 / RFU, ZNF28 / Fold change vs veh, ZNF28 / RFU, RNGTT / Fold change vs veh, RNGTT / RFU, OGT / Fold change vs veh, OGT / RFU, BRD1 / Fold change vs veh, BRD1 / RFU, MARS / Fold change vs veh, MARS / RFU, ZNF655 / Fold change vs veh, ZNF655 / RFU, FAHD1 / Fold change vs veh, FAHD1 / RFU, BDP1 / Fold change vs veh, BDP1 / RFU, LRRCC1 / Fold change vs veh, LRRCC1 / RFU, ARID1A / Fold change vs veh, ARID1A / RFU, ZNF146 / Fold change vs veh, ZNF146 / RFU, ZNF330 / Fold change vs veh, ZNF330 / RFU, GPN3 / Fold change vs veh, GPN3 / RFU, C9orf123 / Fold change vs veh, C9orf123 / RFU, N4BP2L2 / Fold change vs veh, N4BP2L2 / RFU, ARFIP1 / Fold change vs veh, ARFIP1 / RFU, FAM179B / Fold change vs veh, FAM179B / RFU, BCL10 / Fold change vs veh, BCL10 / RFU, UHRF1BP1L / Fold change vs veh, UHRF1BP1L / RFU, BET1 / Fold change vs veh, BET1 / RFU, CNOT2 / Fold change vs veh, CNOT2 / RFU, ZNF268 / Fold change vs veh, ZNF268 / Fold change vs veh, ZNF507 / RFU, DGCR2 / Fold change vs veh, DGCR2 / RFU, WDSUB1 / Fold change vs veh, WDSUB1 / Fold change vs veh, HSP90B1 /// MIR3652 / RFU, ADSS / Fold change vs veh, ADSS / RFU, GK / Fold change vs veh, GK / RFU, ZNF148 / Fold change vs veh, ZNF148 / RFU, TAF9 / Fold change vs veh, TAF9 / RFU, SLC1A5 / Fold change vs veh, SLC1A5 / RFU, SLMO2 / Fold change vs veh, SLMO2 / RFU, ABCC4 / Fold change vs veh, ABCC4 / RFU, LOC101060439 /// RAP1B / Fold change vs veh, LOC101060439 /// RAP1B / RFU, RFX7 / Fold change vs veh, RFX7 / RFU, GTPBP10 / Fold change vs veh, GTPBP10 / RFU, CNEP1R1 / Fold change vs veh, CNEP1R1 / RFU, BIVM-ERCC5 /// ERCC5 / Fold change vs veh, BIVM-ERCC5 /// ERCC5 / RFU, ILF3 / Fold change vs veh, ILF3 / RFU 11762660_at / Fold change /veh 11762660_at / RFU VCAN (11757783_s_at) / Fold change /veh VCAN (11757783_s_at) / RFU DDX43 (11728927_at) / Fold change /veh DDX43 (11728927_at) / RFU KRT8 (11758188_x_at) / Fold change /veh KRT8 (11758188_x_at) / RFU NKD1 (11759106_at) / Fold change /veh NKD1 (11759106_at) / RFU SRD5A1 (11742802_a_at) / Fold change /veh SRD5A1 (11742802_a_at) / RFU TPSAB1 /// TPSB2 (11721975_s_at) / Fold change /veh TPSAB1 /// TPSB2 (11721975_s_at) / RFU GSTM3 (11746129_a_at) / Fold change /veh GSTM3 (11746129_a_at) / RFU IL23R (11737362_x_at) / Fold change /veh IL23R (11737362_x_at) / RFU TMEM51 (11727254_a_at) / Fold change /veh TMEM51 (11727254_a_at) / RFU PIWIL2 (11732686_x_at) / Fold change /veh PIWIL2 (11732686_x_at) / RFU ORM1 (11744905_x_at) / Fold change /veh ORM1 (11744905_x_at) / RFU CCDC152 (11743942_at) / Fold change /veh CCDC152 (11743942_at) / RFU ECM1 (11717891_a_at) / Fold change /veh ECM1 (11717891_a_at) / RFU IL23R (11748794_a_at) / Fold change /veh IL23R (11748794_a_at) / RFU TNFAIP8L3 (11732012_x_at) / Fold change /veh TNFAIP8L3 (11732012_x_at) / RFU MBOAT4 (11741988_at) / Fold change /veh MBOAT4 (11741988_at) / RFU 11764193_at / Fold change /veh 11764193_at / RFU TMEM53 (11763286_at) / Fold change /veh TMEM53 (11763286_at) / RFU MAGEB2 (11727129_at) / Fold change /veh MAGEB2 (11727129_at) / RFU TMEM200A (11744735_a_at) / Fold change /veh TMEM200A (11744735_a_at) / RFU CCDC152 (11751479_a_at) / Fold change /veh CCDC152 (11751479_a_at) / RFU FAM211A (11726209_a_at) / Fold change /veh FAM211A (11726209_a_at) / RFU RGS16 (11746705_a_at) / Fold change /veh RGS16 (11746705_a_at) / RFU VCAN (11755009_s_at) / Fold change /veh VCAN (11755009_s_at) / RFU RHOB (11743442_s_at) / Fold change /veh RHOB (11743442_s_at) / RFU RGS16 (11720943_a_at) / Fold change /veh RGS16 (11720943_a_at) / RFU RGS16 (11720944_at) / Fold change /veh RGS16 (11720944_at) / RFU, VPS4B / Fold change vs veh, VPS4B / RFU, CREB1 / Fold change vs veh, CREB1 / RFU, DNAJC13 / Fold change vs veh, DNAJC13 / RFU, GNAQ / Fold change vs veh, GNAQ / RFU, CDK5R1 / Fold change vs veh, CDK5R1 / RFU, ZRANB3 / Fold change vs veh, ZRANB3 / RFU, CUL4A / Fold change vs veh, CUL4A / RFU, CCNY / Fold change vs veh, CCNY / RFU, UFL1 / Fold change vs veh, UFL1 / RFU, COG3 / Fold change vs veh, COG3 / RFU, DIAPH2 / Fold change vs veh, DIAPH2 / RFU, SKA2 / Fold change vs veh, SKA2 / RFU, AFF3 / Fold change vs veh, AFF3 / RFU, LMF1 / Fold change vs veh, LMF1 / RFU, IPO11 / Fold change vs veh, IPO11 / RFU, DFFB / Fold change vs veh, DFFB / RFU, FOXP1 / Fold change vs veh, FOXP1 / RFU, CARD8 / Fold change vs veh, CARD8 / RFU, STRN3 / Fold change vs veh, STRN3 / RFU, ADK / Fold change vs veh, ADK / RFU, RASSF2 / Fold change vs veh, RASSF2 / RFU, WIPF1 / Fold change vs veh, WIPF1 / RFU, LARP1B / Fold change vs veh, LARP1B / RFU, RASA1 / Fold change vs veh, RASA1 / RFU, RB1 / Fold change vs veh, RB1 / RFU, PPFIA1 / Fold change vs veh, PPFIA1 / RFU, MAT2A / Fold change vs veh, MAT2A / RFU, CCT5 / Fold change vs veh, CCT5 / RFU, WDR92 / Fold change vs veh, WDR92 / RFU, CUX1 / Fold change vs veh, CUX1 / RFU, TTC7A / Fold change vs veh, TTC7A / RFU, TMEM135 / Fold change vs veh, TMEM135 / RFU, DEPTOR / Fold change vs veh, DEPTOR / RFU, CPM / Fold change vs veh, CPM / RFU, DNAJB6 / Fold change vs veh, DNAJB6 / RFU, CACNA2D3 / Fold change vs veh, CACNA2D3 / RFU, DTX4 / Fold change vs veh, DTX4 / RFU, TFCP2 / Fold change vs veh, TFCP2 / RFU, GMCL1 /// GMCL1P1 / Fold change vs veh, GMCL1 /// GMCL1P1 / RFU, AEBP2 / Fold change vs veh, AEBP2 / RFU, SNHG1 /// SNORD22 /// SNORD25 /// SNORD26 /// SNORD27 /// SNORD28 /// SNORD29 /// SNORD31 / Fold change vs veh, SNHG1 /// SNORD22 /// SNORD25 /// SNORD26 /// SNORD27 /// SNORD28 /// SNORD29 /// SNORD31 / Fold change (Aza/veh), C12orf56 (ProbeSet 11735607_a_at) / Fold change (ACY-1035/veh), C12orf56 (ProbeSet 11735607_a_at) / Fold change (Aza/veh), FGFR1OP (ProbeSet 11751329_s_at) / Fold change (ACY-1035/veh), FGFR1OP (ProbeSet 11751329_s_at) / Fold change (Aza/veh), VPS36 (ProbeSet 11739960_a_at) / Fold change (ACY-1035/veh), VPS36 (ProbeSet 11739960_a_at) / RFU SYPL1 (11715823_x_at) / Fold change /veh SYPL1 (11715823_x_at) / RFU IGFBP7 (11715501_s_at) / Fold change /veh IGFBP7 (11715501_s_at) / RFU REEP3 (11722064_at) / Fold change /veh REEP3 (11722064_at) / RFU IGLL1 (11728026_x_at) / Fold change /veh IGLL1 (11728026_x_at): dose or concentration left out as unconfirmed
Settings: ProbeSet 11731093_s_at; LIST B

Nc1ccc(-c2cccs2)cc1NC(=O)c1ccc2c(c1)cc(C1CC1)n2CCN1CCOCC1 [ACY-1035]
Fold change vs veh, BRD1: 0.87
